# Source: patent US20220105170A1 (priority 2019, published 2022)
# Where “and” joins values, the source holds several entries; their conditions need not be identical. Equal values may be shown once.
# System: peripheral blood lymphocytes collected from swine exposed to ASFV
# Type: cell-based
row,Substance,Number of Spots
1,2159 (RIHTRFGQYY) [compound 2159],15
2,1573 (KVIRAHNFI) [compound 1573],12
3,1375 (RAREFYISW) [compound 1375],15
4,2205 (SVEELLSAV) [compound 2205],13
5,1531 (MVFNQLIASY) [compound 1531],12
6,2266 (YRHFKDWRL) [compound 2266],14
7,2125 (TAIQKNYFR) [compound 2125],14
8,1628 (SAMLEFKKF) [compound 1628],12
9,1523 (STAQVHLDF) [compound 1523],14
10,1706 (RLQTPIPVY) [compound 1706],13
11,1141 (ILAEYVYSY) [compound 1141],18
12,439 (ISPEKFIKI) [compound 439],16
13,888 (TMMHYPTFNW) [compound 888],12
14,1658 (AFINSTDFLY) [compound 1658],12
15,923 (VLLRDSGYY) [compound 923],14 and 16
16,769 (RLNAPNLKY) [compound 769],13
17,56 (MRYTQIYKYPL) [compound 56],23
18,726 (DMYSVIFNIKY) [compound 726],14
19,1912 (KQFEMFNMVY) [compound 1912],12
20,1648 (RTLMDQPTY) [compound 1648],14
21,1701 (YTGIQSPLF) [compound 1701],13
22,1501 (ALDLSLIGFY) [compound 1501],14

row,Substance,Number of Spots
1,1106 (CSSCMVRTY) [compound 1106],130
2,836 (RSEWASSNTF) [compound 836],31
3,2142 (RFFKKLLTH) [compound 2142],12
4,847 (YINFRLKTFY) [compound 847],21
5,1001 (FKLYYIPLSI) [compound 1001],21
6,880 (SSIVFQHEM) [compound 880],66
7,647 (GADPTQKDY) [compound 647],14
8,860 (KARLCGLSY) [compound 860],14 and 19
9,1630 (AMLEFKKFF) [compound 1630],12
10,653 (WAVFTGNMEL) [compound 653],16
11,1923 (RISSELISY) [compound 1923],13
12,925 (KKQKHVSLL) [compound 925],14
13,1006 (KRKKHVEEI) [compound 1006],13
14,279 (KTDLLNNEF) [compound 279],17
15,1543 (NIYNYDYSF) [compound 1543],12
16,1296 (HGQLQTFPR) [compound 1296],16
17,1129 (IMDDLVEEY) [compound 1129],14
18,744 (SKFCNHMFFR) [compound 744],18
19,977 (LSSNYFYTF) [compound 977],18
20,1567 (QAQEEWNMIL) [compound 1567],13
21,1196 (KEMQDYSLTF) [compound 1196],17
22,1488 (STQFMIQYF) [compound 1488],13
